As usually defined, the IC50 is the midpoint of a concentration-inhibition curve. Low values mean higher potency, high ones lower potency.

Here are results for 14 molecules from publication PMC6225178 (Molecules : A Journal of Synthetic Chemistry and Natural …, 2018).

The nature of one series: DPPH assay. Particulars: for IC50: 30 min incubation at room temperature, absorbance 517 nm, n.a. ^c = no protection detected, n.a. ^d = IC50 > 5 mM. Here is the method:
The 2,2-diphenyl-1-picrylhydrazyl (DPPH) assay was performed using a previously reported method with a modification. A series of samples consisting of 900 μL of the 0.04 mg/mL methanolic solution of DPPH and different concentrations of the compounds (100 μL) were prepared. Then, the absorbance at 517 nm was measured after a 30 min incubation at room temperature. The half maximal inhibitory concentration (IC50) was used as an indicating measure of the scavenging activity.
Background: The DPPH test is a chemical assay of radical scavenging.

Series [1] is described as follows: Oxidation inhibition of the o/w emulsion (TBARS). Particulars: for Inhibition of Oxidation of o/w Emulsion: determined at 100 µM, oxidation induced with Mohr's salt 5 mM, TBARS, n.a. ^c = no protection detected; for protection against the induced oxidation (in words): o/w emulsion model. As to the method:
The emulsion containing 15 mg of sorbitan sesquioleate, 50 mg of flaxseed oil, and 2 mL of 10 mM Tris-HCl buffer, pH 7.4, was prepared by the method. Determination of the oxidation inhibition of the o/w emulsion was carried out according to a procedure described previously, using 20 μL of the 1:1 (v/v) buffer-diluted emulsion, methanolic solution of each compound (final concentration 100 μM), and ammonium iron(II) sulfate hexahydrate (Mohr′s salt) (5 mM). Thiobarbituric acid reacting substances (TBARS) were determined according to [44].

In series [2] the test system is normal human dermal fibroblast (NHDF) cell line. The experiment in a line: Cell viability assay (MTT) in the NHDF cell line. Particulars: highest concentration. Type of series: cell-based. Here is the method:
The cytotoxicity test was performed as described in [44] using the NHDF cell line treated with the methanolic solution of the tested compounds to obtain the final concentrations of 12.5, 25, 50, 100, 200, or 250 µM, and incubation for 24 and 48 h. Cell viability was assessed by the MTT method.

As for `O=C(O)/C=C/c1ccc(O)c(O)c1` [CA, caffeic acid, reference compound], in “DPPH assay”, half-maximal inhibition (IC50) required 32.2 µM. For the same molecule, in series [1], the “Inhibition of Oxidation of o/w Emulsion” value was determined as 26.1 ± 2.9.
As for `CC(=O)/C=C/c1ccccc1O` [Compound 6, 4-(2′-hydroxyphenyl)-3(E)-buten-2-one], in the series “DPPH assay”, the “DPPH scavenging ability (in words)” value is “no scavenging ability”.
With `COC(=O)/C=C/c1ccc(O)cc1O` [Compound 11, 3-(2′,4′-dihydroxyphenyl)-(E)-propenoic acid methyl ester], in the series “DPPH assay”, the IC50 came to 1020 µM. Further, in series [1], the “Inhibition of Oxidation of o/w Emulsion” value is reported as 33.7 ± 6.5.
Regarding `CC(=O)/C=C/c1ccc(O)cc1` [Compound 16, 4-(4′-hydroxyphenyl)-3(E)-buten-2-one], in the series “DPPH assay”, the “DPPH scavenging ability (in words)” value was “no scavenging ability”. Also, in series [1], the “Inhibition of Oxidation of o/w Emulsion” value came to 6.8 ± 4.4.
With `COC(=O)/C=C/c1ccccc1O` [Compound 9, 3-(2.′-Hydroxyphenyl)-(E)-propenoic acid methyl ester], the “DPPH scavenging ability (in words)” value in the series “DPPH assay” is on record as “no scavenging ability”. Moreover, the “Inhibition of Oxidation of o/w Emulsion” value in series [1] is given as 2.6 ± 1.5.
For the molecule `CC(=O)/C=C/c1ccc(O)cc1O` [Compound 17, 4-(2′,4′-dihydroxyphenyl)-3(E)-buten-2-one], the IC50 in “DPPH assay” worked out at 688 µM. The “Inhibition of Oxidation of o/w Emulsion” value in series [1] was found to be 4.6 ± 1.3.
Take `COC(=O)/C=C/c1cc(O)c(O)cc1O` [Compound 13, 3-(2′,4′,5′-trihydroxyphenyl)-(E)-propenoic acid methyl ester]: in “DPPH assay”, the IC50 is 53.3 µM. In series [1], the “antioxidant activity compared with caffeic acid (in words)” value is given as “higher antioxidant activity than caffeic acid”, the “Inhibition of Oxidation of o/w Emulsion” value was 38.6 ± 2.3 and the “protection against the induced oxidation (in words)” value (“protection” for short) is given as “highest protection against the induced oxidation”. Moreover, in series [2], the “effect on viability of NHDF cells after 48 h (in words)” value is on record as “this effect after 48 h was not clearly noticeable”.
In the case of `COc1cc(/C=C/C(C)=O)ccc1O` [Compound 20, 4-(3′-methoxy-4′-hydroxyphenyl)-3(E)-buten-2-one], the midpoint of inhibition in “DPPH assay”, the IC50, lay at 61.8 µM. The “Inhibition of Oxidation of o/w Emulsion” value in series [1] is reported as 7.9 ± 2.1. The “effect on viability of NHDF cells after 48 h (in words)” value in series [2] is given as “this effect after 48 h was not clearly noticeable”.
As for `COC(=O)/C=C/c1ccc(O)cc1` [Compound 8, 3-(4′-Hydroxyphenyl)-(E)-propenoic acid methyl ester], in the series “DPPH assay”, the “DPPH scavenging ability (in words)” value is given as “no scavenging ability”. The “Inhibition of Oxidation of o/w Emulsion” value in series [1] was determined as 22.7 ± 6.4.
The molecule `COC(=O)/C=C/c1ccc(O)c(O)c1O` [Compound 12, 3-(2′,3′,4′-trihydroxyphenyl)-(E)-propenoic acid methyl ester] returned an IC50 in “DPPH assay” of 18.6 µM. Further, in series [1], the “antioxidant activity compared with caffeic acid (in words)” value is “higher antioxidant activity than caffeic acid”, the “Inhibition of Oxidation of o/w Emulsion” value is on record as 55.5 ± 2 and the “protection” value is recorded as “highest protection against the induced oxidation”.
For the molecule `COC(=O)/C=C/c1cccc(O)c1` [Compound 10, 3-(3′-Hydroxyphenyl)-(E)-propenoic acid methyl ester], in “DPPH assay”, the “DPPH scavenging ability (in words)” value is “no scavenging ability”. The “Inhibition of Oxidation of o/w Emulsion” value in series [1] came out at 18.4 ± 2.2.
On to `CC(=O)/C=C/c1cccc(O)c1` [Compound 15, 4-(3′-hydroxyphenyl)-3(E)-buten-2-one], for which, in the series “DPPH assay”, the “DPPH scavenging ability (in words)” value is recorded as “no scavenging ability”.
Molecule `CC(=O)/C=C/c1ccc(O)c(O)c1O` [Compound 18, 4-(2′,3′,4′-trihydroxyphenyl)-3(E)-buten-2-one] gave an IC50 in the series “DPPH assay” of 16.8 µM. Besides, in series [1], the “antioxidant activity compared with caffeic acid (in words)” value is “higher antioxidant activity than caffeic acid”, the “Inhibition of Oxidation of o/w Emulsion” value turned out to be 28.6 ±4 and the “protection” value is on record as “highest protection against the induced oxidation”.
Molecule `COC(=O)/C=C/c1ccc(O)c(OC)c1` [Compound 14, 3-(4′-hydroxy-3-metoxyphenyl)-(E)-propenoic acid methyl ester] returned an IC50 in “DPPH assay” of 58.9 µM. The “Inhibition of Oxidation of o/w Emulsion” value in series [1] stood at 14.8 ± 2.
